# From patent US10065965B2, “Imidazo[1,2-B][1,2,4]triazine derivatives as antiparasitic agents” (GlaxoSmithKline Intellectual Property Development Limited, priority 2015, dated 2018)
# Columns and labels:
# [1] = system: Trypanosoma cruzi; assay: Assay 6 Trypanosoma cruzi intracellular assay (infected H9C2 cells); assay type: cell-based; settings: H9c2, in Rattus norvegicus, 72 h, infected H9C2 rat cardiomyocytes, read-out: pEC50 value against Trypanosoma cruzi (converted)
# How it was run: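 Infected H9C2 rat cardiomyocytes (T. cruzi trypomastigotes, MOI 1, 18 h) plated at 2500 cells/well on compound, 11-point 1:3 curves from 50 μM top, 72 h at 37 °C in 2% FBS DMEM. Fixed, Draq5-stained, high-content imaged; algorithm counts parasites per cell, % infected cells and total host cells (cytotoxicity).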
# [2] = system: Trypanosoma brucei; assay: Assay 3 Trypanosoma brucei cell growth inhibition assay; assay type: cell-based; settings: T. b. brucei BSF427, 69 h + 4 h resazurin, maximum threshold 8.0, read-out: pEC50 value against Trypanosoma brucei (converted)
# Procedure: Measurement of the ability of the compounds to inhibit trypanosome (T. b. brucei, BSF427, VSG118) cell growth was performed using a modification of the cell viability assay previously described by Raz et al. (Raz B.; Iten M.; Grether-Buhler Y.; Kaminski R.; Brun R. The Alamar Blue assay to determine drug sensitivity of African trypanosomes (T. b. rhodesiense and T. b. gambiense) in vitro. Acta Trop. 1997, 68, 139-147). Compounds were dissolved in DMSO at a top concentration of 10 mM and serially diluted in half log steps to achieve a range of final assay concentrations of 50 μM to 0.5 nM. Compound at each concentration (200-fold final) was added to clear 96-well tissue culture plates in a volume of 1 μL. Then 2000 cells per well in relevant growth medium (HMI-9T for T. brucei, a modification of HMI-9 as described by Hurumi et al. (Hirumi H.; Hirumi K. Continuous cultivation of Trypanosoma brucei blood stream forms in a medium containing a low concentration of serum-protein without feeder cell-layers. J. Parasitol. 1989, 75, 985-989.) where 0.2 mM 2-mercaptoethanol was replaced with 0.056 mM thiolglycerol, and MEM with 10% FBS for MRC5) were then added to columns 1-11 of the plates in a volume of 199 μL. To column 12, 200 μL of medium was added to provide a no cells control. Plates were then incubated at 37° C. in an atmosphere of 5% CO2 for 69 h, before the addition of 20 μL of 500 μM rezasurin solution, and a further incubation period of 4 h. Plates were then read on a BioTek flx800 fluorescent plate reader, and percentage inhibition was compared to the maximum and minimum assay controls. Concentration effect curves were fitted using nonlinear regression using XLFit 4.2 and EC50 values determined.
# [3] = system: Leishmania donovani; assay: Assay 1 intramacrophage Leishmania donovani assay (potency readout); assay type: cell-based; settings: amastigotes in PMA-treated THP-1 macrophages, 96 h, average number of amastigotes per cell, minimum threshold 4.3, read-out: pEC50 value against Leishmania donovani (converted)
# Procedure: The intramacrophage Leishmania assay was performed using a modified version of the method described in De Rycker et al. (Antimicrob Agents Chemother. 2013 July; 57(7):2913-22. Comparison of a high-throughput high-content intracellular Leishmania donovani assay with an axenic amastigote assay. De Rycker M, Hallyburton I, Thomas J, Campbell L, Wyllie S, Joshi D, Cameron S, Gilbert I H, Wyatt P G, Frearson J A, Fairlamb A H, Gray D W.). Procedure: 350 nl of compound was pre-dispensed into 384 well sterile intermediary plates. For single point screening, amphotericin B was added to all wells of column 24 as a positive control (final concentration 2 μM) and DMSO to column 23. For potency determinations, ten-point, one in three dilution curves were created with the highest concentration being 50 μM and on each plate a control curve of amphotericin B was included. Controls were as follows: columns 11 and 12: DMSO, columns 23 and 24: amphotericin B (final concentration 2 μM). To the intermediary plates, 35 μl of THP-1 media was added and plates were shaken for >5 min to ensure complete mixing. THP-1 cells (8,000 per well, 50 μl) were plated into black clear-bottom 384 well plates (Corning) in presence of 20 nM PMA. After 20 min at RT, the plates were incubated at 37° C. under 5% CO2 in a humidified incubator for 75 h. The cells were then washed with […] sterile phosphate buffered saline (PBS) supplemented with 1 mM CaCl2, 0.5 mM MgCl2, 0.1% (w/v) bovine serum albumin (PBS-A) and amastigotes were added to all wells at a multiplicity of infection of 5 (40,000 amastigotes per well). After 40 min at RT, plates were returned to the incubator. Amastigotes were incubated in the presence of THP-1 macrophages for 16 h. Any remaining extracellular amastigotes were subsequently removed with an overflow wash of 1 mL PBS-A per well (wash buffer is being aspirated from the top of the well as it is being dispensed) followed by addition of 25 μl of the compound pre-dilutions using a Fluidx Ipette-pro pipetting station. The final dilution of each compound was 200-fold. Plates were incubated for 96 h and then washed (250 μl PBS-A) and fixed (4% (v/v) formaldehyde-PBS, 30 min, RT). After fixation, the wells were washed with 250 μl PBS, stained (10 μg/mL DAPI, 0.4 μg mL-1 HCS Cellmask Deep Red in PBS+0.1% (v/v) Triton X-100, 30 min, RT) and washed with 250 μl PBS. Finally, PBS+0.05% (v/v) thimerosal was added to the wells, the plates were sealed and imaged on a high-content microscope (GE IN Cell 2000) using a 10× objective. Image analysis was carried out with GE IN Cell Analyzer 1000 Workstation using the “Multi Target Analysis” module. Settings for segmentation were as follows: nuclei: minimum area: 142.384 μm2, sensitivity: 81, method: top-hat; cells: characteristic area: 2500 μm2, sensitivity: 60, method: multiscale top-hat; organelles (amastigotes): granule size 1-3, 3 scales, sensitivity: 90, detection in entire cell. For each well, i) THP-1 cell count (cytotoxicity readout) and ii) average number of amastigotes per cell (potency readout) were calculated, both in terms of pEC50 values.
# [4] = Assay 4 solubility assay, ChemiLuminescent Nitrogen Detection (CLND); assay type: physicochemical; settings: phosphate buffered saline, pH 7.4, aqueous buffer, kinetic from dmso stock, pH 7.4 PBS, from 10 mM DMSO stock, 1 h at room temperature
# How it was run: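 Kinetic solubility: 10 mM DMSO stock diluted 5 µl into 100 µl pH 7.4 PBS, incubated 1 h at room temperature, then filtered. Filtrate quantified by HPLC with chemiluminescent nitrogen detection against ondansetron and caffeine standards; solubility in µM by linear-regression calibration.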
# [5] = Assay 5 Leishmania donovani intracellular assay, cytotoxicity against THP-1 cells; assay type: cell-based; settings: human, total number of THP-1 cells, minimum threshold 4.3, read-out: cytotoxicity against THP-1 cells, pEC50 value (converted)
# Procedure: Compounds were dispensed into black 384-well assay plates (Greiner) by acoustic dispensing (LabCyte ECHO). For potency determinations, eleven-point, one in three dilution curves were generated, with a top concentration of 50 μM. THP-1 human monocytes cells were dispensed in T225 tissue culture flasks and differentiated using 30 nM of PMA, after 24 hours they were infected overnight using Leishmania donovani expressing Green Fluorescent Protein (eGFP) amastigotes in the same T225 tissue culture flasks at a multiplicity of infection of 10. Next, any remaining free amastigotes were washed away with PBS and the infected THP-1 cells were harvested by trypsinisation. The infected cells were then plated into 384-well plates containing the compounds to be tested, at 3000 cells per well in RPMI media with 2% FBS and 25 mM Sodium bicarbonate. After 96 h incubation at 37° C. in presence of 5% CO2, the plates were fixed with 4% formaldehyde for 30 minutes, washed with PBS and stained with 0.1 mg/mL of DAPI for 30 minutes and washed again with PBS. The plates were imaged on a Perkin Elmer Opera high-content imaging system using a 20× air objective with two expositions, one for DAPI stain and other for eGFP. Images were analysed using the Acapella building blocks system (Perkin Elmer). The image analysis algorithm first identified the THP-1 nuclei followed by demarcation of the cytoplasm and identification of intracellular amastigotes. This algorithm reported mean number of parasites per THP-1 cell, the percentage of infected THP-1 cells and the total number of THP-1 cells.
# [6] = system: Trypanosoma cruzi; assay: Assay 2 Trypanosoma cruzi intracellular assay (infected Vero cells); assay type: cell-based; settings: 72 h, read-out: pEC50 value against Trypanosoma cruzi (converted)
# Procedure: Compounds were dispensed into black 384-well assay plates (Corning) by acoustic dispensing (LabCyte ECHO). For potency determinations, ten-point one in three dilution curves were generated, with a top concentration of 50 μM. Vero cells were infected overnight with T. cruzi trypomastigotes in T225 tissue culture flasks at a multiplicity of infection of 5. Next, any remaining free trypomastigotes were washed away with serum free MEM media and the infected Vero cells were harvested by trypsinisation. The infected Vero cells were then plated into 384-well plates containing the compounds to be tested, at 4000 cells per well in MEM media with 1% FCS. After 72 h incubation at 37° C. in presence of 5% CO2, the plates were fixed with 4% formaldehyde for 20 minutes at room temperature and stained with 5 μg/ml Hoechst 33342. The plates were imaged on a Perkin Elmer Operetta high-content imaging system using a 20× objective. Images were analysed using the Columbus system (Perkin Elmer). The image analysis algorithm first identified the Vero nuclei followed by demarcation of the cytoplasm and identification of intracellular amastigotes. This algorithm reported mean number of parasites per Vero cell and total number of Vero cells.
EC50 [2],EC50 [3],solubility at 1 h [4],EC50 [6],Structure (SMILES),EC50 [1],EC50 at 96 h [5]
≥ 20 µM,> 50.1 µM,1 to 6 µM,,"CN(C)c1ccc(-c2cnc3nc(-c4cc(NC(=O)N5CCCC5)ccc4F)cn3n2)cn1 [Example 16, N-(3-(2-(6-(dimethyl-amino)pyridin-3-yl)imidazo[1,2-b][1,2,4]triazin-6-yl)-4-fluorophenyl)pyrrolidine-1-carboxamide]",0.00501 to 0.631 µM,
,,10 to 83 µM,,"CC(C)OC(=O)Nc1ccc(F)c(-c2cn3nc(N4CCOCC4)cnc3n2)c1 [Example 48, isopropyl (4-fluoro-3-(2-morpholinoimidazo[1,2-b] [1,2,4]triazin-6-yl)phenyl)carbamate]",0.00501 to 0.631 µM,2.51 to 10 µM
≥ 20 µM,,,20 µM,"O=S(=O)(Nc1ccc(F)c(-c2cn3nc(N4CCOCC4)cnc3n2)c1)N1CCCC1 [Example 10, N-(4-fluoro-3-(2-morpholinoimidazo[1,2-b][1,2,4]triazin-6-yl)phenyl)pyrrolidine-1-sulfonamide]",10 to 39.8 µM,
,,10 to 83 µM,,"CN(C)Cc1ccc(-c2cnc3nc(-c4cc(NC(=O)N5CCCC5)ccc4F)cn3n2)cc1 [Example 37, N-(3-(2-(4-((dimethyl-amino)methyl)phenyl)imidazo[1,2-b][1,2,4]triazin-6-yl)-4-fluoro-phenyl)pyrrolidine-1-carboxamide]",0.00501 to 0.631 µM,2.51 to 10 µM
≥ 20 µM,> 50.1 µM,,,"Cc1noc(C)c1S(=O)(=O)Nc1ccc(F)c(-c2cn3nc(N4CCOCC4)cnc3n2)c1 [Example 53, N-(4-fluoro-3-(2-morpholinoimidazo[1,2-b] [1,2,4]triazin-6-yl)phenyl)-3,5-dimethyl-isoxazole-4-sulfonamide]",10 to 39.8 µM,
≥ 20 µM,> 50.1 µM,,,"O=C(Nc1ccc(F)c(-c2cn3nc(-c4ccc(CCN5CCOCC5)cc4)cnc3n2)c1)N1CCCC1 [Example 39, N-(4-fluoro-3-(2-(4-(2-morpholinoethyl)phenyl)imidazo[1,2-b][1,2,4]triazin-6-yl)phenyl) pyrrolidine-1-carboxamide]",0.00501 to 0.631 µM,
≥ 20 µM,> 50.1 µM,,,"CN(C)S(=O)(=O)Nc1ccc(F)c(-c2cn3nc(N4CCOCC4)cnc3n2)c1 [Example 32, N-(4-fluoro-3-(2-morpholinoimidazo [1,2-b][1,2,4]triazin-6-yl)phenyl)-N′-dimethylsulfamide]",10 to 39.8 µM,
,,100 to 416 µM,,"CNCc1cccc(-c2cnc3nc(-c4cc(NC(=O)N5CCCC5)ccc4F)cn3n2)c1 [Example 44, N-(4-fluoro-3-(2-(3-((methylamino)methyl)phenyl)imidazo[1,2-b] [1,2,4]triazin-6-yl)phenyl) pyrrolidine-1-carboxamide]",0.00501 to 0.631 µM,2.51 to 10 µM
